What was measured:
HMLER-shEcad cells = assay: HMLER-shEcad viability with co-incubated necroptosis/apoptosis inhibitors; type: cell-based, human; conditions: 20 μM necrostatin-1 or 5 μM z-VAD-FMK (FIG. 9C, 9D)
[1] = ANTS/DPX liposome leakage assay, 3POPC/1POPG vesicles; type: biochemical; conditions: for Peptide Concentration-induced 50% ANTS/DPX leakage at pH 4.8, 3POPC/1POPG Vesicle / Peptide Concentration-induced 50% ANTS/DPX leakage at pH 7.4, 3POPC/1POPG Vesicle: 0.5 mM vesicles; for Peptide Concentration-induced 50% ANTS/DPX leakage at pH 4.8, 3POPC/1POPG Vesicle: pH 4.8, lipid per peptide; for Peptide Concentration-induced 50% ANTS/DPX leakage at pH 7.4, 3POPC/1POPG Vesicle: pH 7.4, lipid per peptide
Procedure, shortened: (§1)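 LUVs (100 nm extruded) of POPC or POPC:POPG 3:1, loaded with 5 mM ANTS/12.5 mM DPX, used at 0.5 mM lipid with peptide 0–20 μM in PBS pH 7.4 or HCl-adjusted PBS pH 4.8. Leakage read after 3 h (ex 350/em 510 nm) against 10% Triton maximum; 50% leakage expressed as lipid per peptide.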

[2] = ANTS/DPX liposome leakage assay, POPC vesicles; type: biochemical; conditions: 0.5 mM vesicles; for Peptide Concentration-induced 50% ANTS/DPX leakage at pH 4.8, POPC Vesicle: pH 4.8, lipid per peptide; for Peptide Concentration-induced 50% ANTS/DPX leakage at pH 7.4, POPC Vesicle: pH 7.4, lipid per peptide
Procedure, shortened: as §1

[3] = tested on: U2OS (human bone osteosarcoma); conditions: 72 h
Procedure, shortened: (§2)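 MTT viability after 72 h exposure to 0–100 μM compound (final DMSO 0.5% or 0%), 5×10^3 cells/well; HMLER lines and MCF-10A in MEGM, U2OS in DMEM with 10% FBS. A550 normalized to matching vehicle controls; IC50 interpolated from dose–response curves.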

[4] = Tryptophan fluorescent binding assay, POPC vesicles; conditions: 50 μM peptide, PBS pH 7.4, lipid per peptide
Procedure, shortened: (§3)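 Peptide fixed at 50 μM, titrated with POPC or 3POPC/1POPG large unilamellar vesicles (100 nm extruded; 0-5000 μM lipid) in PBS pH 7.4. Tryptophan fluorescence (ex 280, em 300-450 nm) read after 60 min; lipid concentration giving 50% binding reported as lipid/peptide ratio.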

[5] = Tryptophan fluorescent binding assay, 3POPC/1POPG vesicles; conditions: 50 μM peptide, PBS pH 7.4, lipid per peptide
Procedure, shortened: as §3

[6] = tested on: MCF-10A (human breast epithelial cell); assay: cells; conditions: 72 h
Procedure, shortened: as §2

[7] = tested on: HEK293T (human embryonic kidney cell); assay: cells; conditions: 72 h
[8] = tested on: HMLER (human breast cancer bulk cell); assay: cells; conditions: 72 h
Procedure, shortened: as §2

[9] = tested on: HMLER-shEcad (human breast cancer stem cell); assay: cells; conditions: 72 h
Procedure, shortened: as §2

[10] = tested on: HMLER-shEcad mammospheres; assay: Tumoursphere formation and viability assay (TOX8); type: cell-based, human; conditions: HMLER-shEcad 2D IC50 versus mammosphere IC50

Row | SMILES | cell viability on co-incubation with necrostatin or z-VAD-FMK (HMLER-shEcad cells) | Peptide Concentration-induced 50% ANTS/DPX leakage at pH 4.8, 3POPC/1POPG Vesicle [1] [L/P] | Peptide Concentration-induced 50% ANTS/DPX leakage at pH 7.4, 3POPC/1POPG Vesicle [1] [L/P] | liposome leakage activity from anionic vesicle at pH 4.8 (in words) ([1]; anionic versus zwitterionic vesicle, pH 4.8) | Peptide Concentration-induced 50% ANTS/DPX leakage at pH 4.8, POPC Vesicle [2] [L/P] | Peptide Concentration-induced 50% ANTS/DPX leakage at pH 7.4, POPC Vesicle [2] [L/P] | IC50 [3] [µM] | Lipid Concentration-induced 50% Peptide Binding, POPC Vesicle [4] [L/P] | Lipid Concentration-induced 50% Peptide Binding, 3POPC/1POPG Vesicle [5] [L/P] | IC50 [6] [µM] | IC50 [7] [µM] | IC50 [8] [µM] | IC50 [9] [µM] | decrease in activity, two-dimensional versus mammospheres [10]
1 | CC(C)C[C@@H](NC(=O)CN)C(=O)N[C@H](CC(C)C)C(=O)N[C@H](CCC(=O)O)C(=O)N[C@H](CC(C)C)C(=O)N[C@H](CC(C)C)C(=O)N[C@H](CCC(=O)O)C(=O)N[C@H](CC(C)C)C(=O)N[C@H](CC(C)C)C(=O)N[C@H](CC(C)C)C(=O)N[C@H](CCCCN)C(=O)N[C@H](C)C(=O)N[C@H](C)C(=O)NCC(=O)N[C@H](Cc1c[nH]c2ccccc12)C(N)=O [D-form EEK] | cannot be improved |  |  |  |  |  |  |  |  |  |  |  |  | 
2 | CC(C)C[C@H](NC(=O)CN)C(=O)N[C@@H](CC(C)C)C(=O)N[C@@H](CC(=O)O)C(=O)N[C@@H](CC(C)C)C(=O)N[C@@H](CC(C)C)C(=O)N[C@@H](CCC(=O)O)C(=O)N[C@@H](CC(C)C)C(=O)N[C@@H](CC(C)C)C(=O)N[C@@H](CC(C)C)C(=O)N[C@@H](CCCCN)C(=O)N[C@@H](C)C(=O)N[C@@H](C)C(=O)NCC(=O)N[C@@H](Cc1c[nH]c2ccccc12)C(N)=O [DEK] |  | 469 | 773 | relatively higher liposome leakage activity | 10 | 747 | 19.9 ± 2.65 | 1.50 | 1.67 | ≥ 100 | 6.8 ± 0.85 | 1.14 ± 0.52 | 0.7 ± 0.07 | 
3 | COc1cccc2c1C(=O)c1c(O)c3c(c(O)c1C2=O)C[C@@](O)(C(=O)CO)C[C@@H]3O[C@H]1C[C@H](N)[C@H](O)[C@H](C)O1 [Doxorubicin, doxorubicin, reference compound] | can be dramatically improved |  |  |  |  |  |  |  |  |  |  |  |  | 1,700 fold
4 | CC(C)C[C@H](NC(=O)CN)C(=O)N[C@@H](CC(C)C)C(=O)N[C@@H](CCC(=O)O)C(=O)N[C@@H](CC(C)C)C(=O)N[C@@H](CC(C)C)C(=O)N[C@@H](CCC(=O)O)C(=O)N[C@@H](CC(C)C)C(=O)N[C@@H](CC(C)C)C(=O)N[C@@H](CC(C)C)C(=O)N[C@@H](CCC(=O)O)C(=O)N[C@@H](C)C(=O)N[C@@H](C)C(=O)NCC(=O)N[C@@H](Cc1c[nH]c2ccccc12)C(N)=O [EEE] |  | 28 | 346 |  | 35 | 143 | 78.8 ± 5.3 | 1.33 | 4.50 | ≥ 100 | 50 | 6.25 ± 1.77 | 10.6 ± 3.46 | 
